Measurements: ChEMBL document CHEMBL1201862, “PubChem BioAssay data set” (2004)
Active and inactive are the calls of the source.

Assays:
[1] = NIH-3T3 fibroblast cytotoxicity, dose response, cytotoxicity control, cell-based, fluorescence, Alamar Blue, secondary assay (AID 2327); format: functional;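 note: NIH-3T3 mouse fibroblasts cultured with fluconazole at 8 µg/mL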
[2] = system: Streptococcus sp. 'group A'; test: growth inhibition of control SK(-) GAS strain, dose response, counter-screen for streptokinase expression inhibitor project, luminescence, kanamycin, BacTiterGlo, confirmation (AID 1900); format: functional, organism-based
Streptokinase A = target: T1, Streptokinase A (Streptococcus pyogenes serotype M1, UniProt P10520); test: S. pyogenes streptokinase expression inhibitors, potency, dose response, plasminogen activation absorbance, OD405 (AID 1914); format: functional, Streptococcus pyogenes M1 GAS;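 note: secreted streptokinase activity via plasminogen activation per viability signal from cell pellet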
T1 sequence (P10520 whole entry): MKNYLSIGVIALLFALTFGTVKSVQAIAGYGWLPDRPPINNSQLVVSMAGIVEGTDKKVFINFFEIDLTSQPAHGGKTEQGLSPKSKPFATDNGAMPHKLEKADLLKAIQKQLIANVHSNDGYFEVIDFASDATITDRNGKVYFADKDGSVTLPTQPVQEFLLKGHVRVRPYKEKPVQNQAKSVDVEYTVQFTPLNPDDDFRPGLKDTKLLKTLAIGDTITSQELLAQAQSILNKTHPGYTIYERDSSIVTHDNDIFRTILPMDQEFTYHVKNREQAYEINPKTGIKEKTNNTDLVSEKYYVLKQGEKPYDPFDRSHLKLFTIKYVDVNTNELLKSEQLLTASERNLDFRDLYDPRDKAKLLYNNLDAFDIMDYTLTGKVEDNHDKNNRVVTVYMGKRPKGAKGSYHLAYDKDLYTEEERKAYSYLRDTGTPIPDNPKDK

[3] = C. albicans growth with fluconazole, confirmation, fluorescence, retest (AID 2467); format: functional, cell-based
[4] = target: T2, Serine/threonine-protein phosphatase (Candida dubliniensis (strain CD36 / CBS 7987 / NCPF 3949 / NRRLY-17841) (Yeast), UniProt B9W6M3); test: calcineurin pathway inhibitors in yeast reporter, dose response, S. cerevisiae, CDRE-lacZ, luminescence, secondary (AID 2388); format: functional, cell-based;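 note: yeast reporter cells carrying a calcineurin-responsive lacZ construct stimulated with calcium chloride; luminescent beta-galactosidase reporter signal in whole cells rather than isolated phosphatase activity; potency for inhibition where a drop in reporter signal means calcineurin blockade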
T2 sequence (B9W6M3 whole entry): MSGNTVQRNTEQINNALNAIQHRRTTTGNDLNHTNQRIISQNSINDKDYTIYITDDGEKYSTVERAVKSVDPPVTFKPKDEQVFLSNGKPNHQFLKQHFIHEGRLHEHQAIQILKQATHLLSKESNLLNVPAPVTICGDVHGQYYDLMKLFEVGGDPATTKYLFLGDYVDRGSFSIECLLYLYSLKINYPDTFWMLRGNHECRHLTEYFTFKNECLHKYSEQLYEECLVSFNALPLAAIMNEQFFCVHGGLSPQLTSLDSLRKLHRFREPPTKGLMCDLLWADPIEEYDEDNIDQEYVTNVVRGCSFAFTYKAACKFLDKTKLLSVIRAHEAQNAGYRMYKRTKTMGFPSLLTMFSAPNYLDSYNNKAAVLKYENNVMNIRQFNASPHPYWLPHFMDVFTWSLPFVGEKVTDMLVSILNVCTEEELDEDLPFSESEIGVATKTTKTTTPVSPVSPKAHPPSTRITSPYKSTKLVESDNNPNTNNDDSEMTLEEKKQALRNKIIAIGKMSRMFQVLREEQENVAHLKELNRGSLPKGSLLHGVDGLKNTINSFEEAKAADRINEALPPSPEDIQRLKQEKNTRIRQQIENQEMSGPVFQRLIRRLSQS

Streptococcus = test: Group A Streptococcus viability loss, dose response, counter-screen for streptokinase expression inhibitor project, luminescence, BacTiterGlo (AID 1915); format: functional, organism-based;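 note: potency for reduction of bacterial viability or growth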
[5] = Luminescence Cell-Based Dose Retest to Confirm Inhibitors of Cancer Stem Cells. [Related pubchem assays (depositor defined):AID2717, AID2721]; format: functional; details: Homo sapiens
[6] = target: T3, High affinity choline transporter 1 (Homo sapiens, UniProt Q9GZV3); test: CHT inhibitors, dose response, cell-based, 5-point CRC, membrane potential dye (AID 504840); format: functional
T3 sequence (Q9GZV3 whole entry): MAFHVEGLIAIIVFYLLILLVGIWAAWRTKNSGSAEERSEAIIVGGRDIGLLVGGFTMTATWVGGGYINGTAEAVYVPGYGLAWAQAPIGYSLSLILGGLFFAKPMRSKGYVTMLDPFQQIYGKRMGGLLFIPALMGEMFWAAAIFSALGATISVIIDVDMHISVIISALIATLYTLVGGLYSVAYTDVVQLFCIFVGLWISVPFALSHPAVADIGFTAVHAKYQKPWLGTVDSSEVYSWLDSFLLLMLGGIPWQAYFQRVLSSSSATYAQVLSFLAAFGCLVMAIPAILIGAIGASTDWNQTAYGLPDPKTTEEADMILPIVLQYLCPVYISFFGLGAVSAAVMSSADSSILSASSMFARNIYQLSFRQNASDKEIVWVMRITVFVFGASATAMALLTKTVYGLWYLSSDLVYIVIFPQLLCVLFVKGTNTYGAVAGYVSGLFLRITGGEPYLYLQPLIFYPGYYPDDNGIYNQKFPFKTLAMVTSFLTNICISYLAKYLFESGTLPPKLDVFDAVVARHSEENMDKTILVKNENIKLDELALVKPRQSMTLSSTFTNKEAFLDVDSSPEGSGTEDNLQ

[7] = target: ATP-dependent molecular chaperone HSP82 (Candida albicans (strain WO-1) (Yeast), UniProt C4YTQ8); test: loss of DOC-induced GRE-beta-galactosidase reporter signal, dose response, Hsp90 inhibitor project, S. cerevisiae, luminescence (AID 2400); format: functional, cell-based;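 note: beta-galactosidase luminescence from glucocorticoid response element reporter as proxy for Hsp90 function; inhibitor potency where signal loss means Hsp90 inhibition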
[8] = target: T4, DNA repair protein RAD52 homolog (Homo sapiens, UniProt P43351); format: functional, biochemical
T4 sequence (P43351 whole entry): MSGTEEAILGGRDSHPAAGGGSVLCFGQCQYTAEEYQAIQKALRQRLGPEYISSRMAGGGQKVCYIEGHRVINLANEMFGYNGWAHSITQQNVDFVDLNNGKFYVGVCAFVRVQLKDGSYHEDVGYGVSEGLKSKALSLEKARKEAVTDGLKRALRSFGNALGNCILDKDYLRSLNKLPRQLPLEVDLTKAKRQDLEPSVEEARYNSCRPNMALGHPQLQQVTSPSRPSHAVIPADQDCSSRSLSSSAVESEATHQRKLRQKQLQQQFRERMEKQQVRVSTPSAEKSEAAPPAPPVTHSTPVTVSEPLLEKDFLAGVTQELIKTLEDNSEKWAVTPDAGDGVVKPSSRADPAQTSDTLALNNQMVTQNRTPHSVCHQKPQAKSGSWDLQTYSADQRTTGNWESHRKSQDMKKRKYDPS

[9] = target: Heat shock protein HSP 90-alpha (Homo sapiens, UniProt P07900); format: functional, organism-based
Vero = Vero cell cytotoxicity, cytotoxicity control for flavivirus capping enzyme inhibitors (AID 588742); format: functional; details: Chlorocebus sabaeus
Caspase-3 = target: T5, Caspase-3 (Homo sapiens, UniProt P42574); format: functional;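 note: Dose-response selectivity test against caspase-3 for candidate inhibitors of sentrin-specific proteases (SENPs)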
T5 sequence (P42574 whole entry): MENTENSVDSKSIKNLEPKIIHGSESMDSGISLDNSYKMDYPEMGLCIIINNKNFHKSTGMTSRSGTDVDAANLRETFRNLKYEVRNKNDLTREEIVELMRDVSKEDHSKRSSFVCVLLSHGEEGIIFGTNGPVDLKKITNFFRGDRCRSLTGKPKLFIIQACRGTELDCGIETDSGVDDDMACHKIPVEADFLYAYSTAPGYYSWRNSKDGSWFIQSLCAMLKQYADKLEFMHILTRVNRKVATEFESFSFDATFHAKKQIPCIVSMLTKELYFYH

[10] = target: T6, Sentrin-specific protease 7 (Homo sapiens, UniProt Q9BQF6); format: functional;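 note: Luminescence-based dose-response confirmation of ultra-high-throughput screening hits, measuring inhibition of SENP7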
T6 sequence (Q9BQF6 whole entry): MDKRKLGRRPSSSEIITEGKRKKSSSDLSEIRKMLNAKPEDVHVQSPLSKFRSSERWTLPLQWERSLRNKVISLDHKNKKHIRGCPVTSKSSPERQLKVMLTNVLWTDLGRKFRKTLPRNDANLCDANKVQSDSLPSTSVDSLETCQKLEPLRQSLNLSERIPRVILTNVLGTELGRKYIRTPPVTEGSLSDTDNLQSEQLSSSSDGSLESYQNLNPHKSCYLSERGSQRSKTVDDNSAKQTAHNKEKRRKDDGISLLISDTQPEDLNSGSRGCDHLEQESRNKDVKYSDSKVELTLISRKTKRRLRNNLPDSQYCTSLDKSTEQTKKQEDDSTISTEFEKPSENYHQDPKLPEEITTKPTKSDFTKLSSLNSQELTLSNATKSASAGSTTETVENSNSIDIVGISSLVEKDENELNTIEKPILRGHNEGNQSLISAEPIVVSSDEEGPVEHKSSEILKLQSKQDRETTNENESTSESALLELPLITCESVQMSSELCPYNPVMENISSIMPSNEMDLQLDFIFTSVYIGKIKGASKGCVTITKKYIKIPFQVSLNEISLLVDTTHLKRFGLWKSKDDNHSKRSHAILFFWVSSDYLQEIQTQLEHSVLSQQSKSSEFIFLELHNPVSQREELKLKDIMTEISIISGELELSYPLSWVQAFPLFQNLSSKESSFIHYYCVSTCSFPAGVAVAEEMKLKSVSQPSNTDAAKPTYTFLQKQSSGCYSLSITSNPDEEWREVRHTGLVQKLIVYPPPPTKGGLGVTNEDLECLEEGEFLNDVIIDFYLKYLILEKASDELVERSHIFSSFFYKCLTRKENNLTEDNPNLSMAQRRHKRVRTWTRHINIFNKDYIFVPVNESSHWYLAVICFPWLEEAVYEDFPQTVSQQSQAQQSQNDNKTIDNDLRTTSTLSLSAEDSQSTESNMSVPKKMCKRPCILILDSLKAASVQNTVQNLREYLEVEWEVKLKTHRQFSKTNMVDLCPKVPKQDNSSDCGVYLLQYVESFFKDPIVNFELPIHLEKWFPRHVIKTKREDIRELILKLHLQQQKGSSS

[11] = target: T7, Sentrin-specific protease 6 (Homo sapiens, UniProt Q9GZR1); format: functional;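 note: Luminescence-based dose-response confirmatory assay of SENP6 inhibition, following up an ultra-high-throughput screen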
T7 sequence (Q9GZR1 whole entry): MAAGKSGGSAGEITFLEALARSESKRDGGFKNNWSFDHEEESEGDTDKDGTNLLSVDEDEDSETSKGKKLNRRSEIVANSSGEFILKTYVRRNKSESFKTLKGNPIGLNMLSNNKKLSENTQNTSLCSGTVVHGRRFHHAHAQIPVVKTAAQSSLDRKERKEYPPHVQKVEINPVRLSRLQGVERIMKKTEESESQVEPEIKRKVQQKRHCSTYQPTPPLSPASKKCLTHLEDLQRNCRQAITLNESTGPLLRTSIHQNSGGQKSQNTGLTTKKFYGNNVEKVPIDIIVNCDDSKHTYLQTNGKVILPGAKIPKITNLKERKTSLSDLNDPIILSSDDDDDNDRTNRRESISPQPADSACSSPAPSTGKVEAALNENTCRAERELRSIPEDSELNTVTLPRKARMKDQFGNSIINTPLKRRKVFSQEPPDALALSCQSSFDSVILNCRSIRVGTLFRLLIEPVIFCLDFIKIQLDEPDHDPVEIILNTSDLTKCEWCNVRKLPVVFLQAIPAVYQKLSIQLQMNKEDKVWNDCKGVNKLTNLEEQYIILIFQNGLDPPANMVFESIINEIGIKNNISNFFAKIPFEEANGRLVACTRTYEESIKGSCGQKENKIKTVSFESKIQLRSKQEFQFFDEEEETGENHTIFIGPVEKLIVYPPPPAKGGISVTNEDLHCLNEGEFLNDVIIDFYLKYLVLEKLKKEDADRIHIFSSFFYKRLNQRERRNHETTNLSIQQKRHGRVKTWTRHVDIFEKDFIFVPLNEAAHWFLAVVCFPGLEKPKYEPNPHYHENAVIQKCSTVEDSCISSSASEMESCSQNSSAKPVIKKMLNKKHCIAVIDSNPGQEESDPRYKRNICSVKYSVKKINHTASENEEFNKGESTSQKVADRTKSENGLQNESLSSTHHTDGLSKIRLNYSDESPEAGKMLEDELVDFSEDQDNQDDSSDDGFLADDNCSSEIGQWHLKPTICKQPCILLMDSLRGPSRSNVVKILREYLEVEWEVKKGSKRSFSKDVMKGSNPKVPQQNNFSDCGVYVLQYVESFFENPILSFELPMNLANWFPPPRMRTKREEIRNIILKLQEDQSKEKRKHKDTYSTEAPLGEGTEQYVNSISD

[12] = target: T8, Sentrin-specific protease 8 (Homo sapiens, UniProt Q96LD8); format: functional;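 note: luminescence read-out of SENP8 inhibition, dose-response confirmation following an ultra-high-throughput screen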
T8 sequence (Q96LD8 whole entry): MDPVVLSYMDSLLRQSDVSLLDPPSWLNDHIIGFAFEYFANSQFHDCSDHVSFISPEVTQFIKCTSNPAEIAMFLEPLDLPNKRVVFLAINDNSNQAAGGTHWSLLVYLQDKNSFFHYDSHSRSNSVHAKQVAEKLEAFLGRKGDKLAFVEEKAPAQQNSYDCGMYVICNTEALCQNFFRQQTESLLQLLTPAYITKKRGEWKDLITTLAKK

Chain of ATP-dependent molecular chaperone HSP82 (C4YTQ8 whole entry): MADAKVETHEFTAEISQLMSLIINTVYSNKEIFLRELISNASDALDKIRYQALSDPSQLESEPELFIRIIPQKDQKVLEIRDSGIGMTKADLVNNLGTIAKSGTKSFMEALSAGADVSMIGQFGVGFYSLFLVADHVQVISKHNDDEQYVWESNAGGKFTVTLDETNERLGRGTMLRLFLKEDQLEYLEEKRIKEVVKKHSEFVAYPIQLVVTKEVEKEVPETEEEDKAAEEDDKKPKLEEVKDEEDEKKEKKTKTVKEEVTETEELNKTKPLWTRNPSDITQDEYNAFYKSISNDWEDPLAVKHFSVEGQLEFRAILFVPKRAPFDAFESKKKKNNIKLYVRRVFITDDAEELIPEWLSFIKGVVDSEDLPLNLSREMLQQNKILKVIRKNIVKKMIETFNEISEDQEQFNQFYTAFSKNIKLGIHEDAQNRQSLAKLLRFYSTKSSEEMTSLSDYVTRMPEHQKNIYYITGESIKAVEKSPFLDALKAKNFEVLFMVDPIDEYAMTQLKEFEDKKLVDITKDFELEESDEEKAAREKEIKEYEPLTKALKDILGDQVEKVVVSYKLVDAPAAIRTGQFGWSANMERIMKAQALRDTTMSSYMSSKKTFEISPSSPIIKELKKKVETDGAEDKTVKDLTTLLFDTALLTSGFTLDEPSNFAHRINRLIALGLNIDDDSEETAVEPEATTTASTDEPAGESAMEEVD

| Structure (SMILES) | EC50 [1] | EC50 [2] | EC50 (Streptokinase A) | EC50 [3] | EC50 [4] | EC50 (Streptococcus) | AC50 [5] | IC50 [6] | EC50 [7] | AC50 [8] | AC50 [9] | CC50 (Vero) | IC50 (Caspase-3) | IC50 [10] | IC50 [11] | IC50 [12] |
| --- | --- | --- | --- | --- | --- | --- | --- | --- | --- | --- | --- | --- | --- | --- | --- | --- |
| O=C(NNC1=C(C(=O)C(F)(F)F)CCC1)c1cccc(Cl)c1 | > 150 µM (inactive) | 1.23 µM (active) | > 150 µM (not active) | 0.741 µM (active) | > 180 µM (inactive) | 2.77 µM (active) | 1.95 µM (active) | 11 µM (active) | 24.6 µM (active) |  |  |  |  |  |  |  |
| CC(C)N1CCc2c(sc(NC(=O)c3nc4ccccc4s3)c2C(N)=O)C1 | > 150 µM (inactive) |  |  | 0.491 µM (active) | > 180 µM (inactive) |  |  |  | 51.8 µM (active) | 9.55 µM (active) |  |  |  |  |  |  |
| [O-][n+]1cccc2c(Br)cc(Br)c(O)c21 | > 150 µM (inconclusive) | 0.865 µM (active) | > 150 µM (not active) | 0.651 µM (active) | > 180 µM (inactive) | 18.7 µM (active) |  |  | > 160 µM (inactive) |  | 3.15 µM (active) | > 40 µM (active) |  |  |  |  |
| O=C(N/N=C/C(Cl)=C\c1ccccc1)c1cccs1 |  |  |  |  |  |  |  |  |  |  |  |  | 28.7 µM (active) | 5.83 µM (active) | > 100 µM (inactive) | > 100 µM (inactive) |
